Positions of bridges follow the written chain, without caps; N, C: chain ends. Residues, ends and D or L forms follow the SMILES beside them.
How the values were obtained:
rKv4.2 channel = target: T1, rKv4.2 channel (Rattus norvegicus, UniProt Q63881); test: Whole-cell patch clamp, rKv4.2 channel overexpressed in HEK293T cells; format: cell-based; conditions: 1 μM peptide, mean ± S.E., n ≥ 3, SEM
T1 construct: expressed in transfected cells; host or cells: HEK293T
T1 sequence (Q63881 1-630): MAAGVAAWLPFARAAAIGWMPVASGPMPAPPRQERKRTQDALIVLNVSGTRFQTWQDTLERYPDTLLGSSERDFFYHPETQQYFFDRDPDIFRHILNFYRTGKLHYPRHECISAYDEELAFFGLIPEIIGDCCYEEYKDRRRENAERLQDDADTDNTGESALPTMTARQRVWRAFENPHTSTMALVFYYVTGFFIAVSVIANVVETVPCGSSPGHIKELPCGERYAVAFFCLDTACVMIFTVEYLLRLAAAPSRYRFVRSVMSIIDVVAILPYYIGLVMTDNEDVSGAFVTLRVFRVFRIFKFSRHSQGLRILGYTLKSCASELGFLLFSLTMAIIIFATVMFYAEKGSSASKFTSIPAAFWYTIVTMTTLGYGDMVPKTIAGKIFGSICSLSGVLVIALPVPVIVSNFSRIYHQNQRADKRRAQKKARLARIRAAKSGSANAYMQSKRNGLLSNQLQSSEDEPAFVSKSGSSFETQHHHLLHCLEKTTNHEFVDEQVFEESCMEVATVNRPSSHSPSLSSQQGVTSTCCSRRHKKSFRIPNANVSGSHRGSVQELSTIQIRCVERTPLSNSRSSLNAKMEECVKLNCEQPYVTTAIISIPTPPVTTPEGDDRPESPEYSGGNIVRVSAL
Description: (§1) To investigate the electrophysiological activities of BmK86-P1, the whole-cell patch clamp technique was applied to test the effects of BmK86-P1 on multiple potassium channels. The hKv1.1, hKv1.2, hKv1.3, hKv1.6, hKv3.2, mKv4.1, rKv4.2, rKv4.3 and hERG channels were overexpressed in HEK293T cells, then the inhibitory effects of BmK86-P1 at 1 μM on these potassium channels were measured. […] To further investigate the affinity of BmK86-P1 inhibiting the hKv1.2 channel, a dose-dependent study was performed by examining the inhibitory effects of different concentrations of BmK86-P1.
All potassium channel expression vectors were given by others or constructed by ourselves. HEK293T cells were cultured in Dulbecco’s modified Eagle medium (Gibco, Pittsburgh, PA, USA) with 10% fetal bovine serum and penicillin/streptomycin (100 units/mL) in a 5% CO2 incubator at 37 °C. […] The potassium currents were recorded after transfection for 1 to 3 days.
(§2) The channel currents were measured and recorded by whole-cell patch clamp technology according to previously published references. […] The channel currents were recorded at room temperature (~25 °C) using an EPC 10 patch clamp amplifier. […]
(§3) The ClampFit (Molecular Devices, Sunnyvale, CA, USA) and SigmaPlot software ([…], Chicago, IL, USA) were used to analyze the recorded data. […]

[1] = target: T2, hKv1.2-M3 chimeric channel (Homo sapiens, UniProt P16389, T383V/V381Y); test: Whole-cell patch clamp, chimeric channel hKv1.2-M3 (turret or filter region of hKv1.2 substituted by that of hKv1.1); format: cell-based; conditions: 100 nM peptide, HEK293T, mean ± S.E., n ≥ 3, SEM
T2 construct: expressed in transfected cells; host or cells: HEK293T
T2 sequence (P16389 whole entry V381Y/T383V): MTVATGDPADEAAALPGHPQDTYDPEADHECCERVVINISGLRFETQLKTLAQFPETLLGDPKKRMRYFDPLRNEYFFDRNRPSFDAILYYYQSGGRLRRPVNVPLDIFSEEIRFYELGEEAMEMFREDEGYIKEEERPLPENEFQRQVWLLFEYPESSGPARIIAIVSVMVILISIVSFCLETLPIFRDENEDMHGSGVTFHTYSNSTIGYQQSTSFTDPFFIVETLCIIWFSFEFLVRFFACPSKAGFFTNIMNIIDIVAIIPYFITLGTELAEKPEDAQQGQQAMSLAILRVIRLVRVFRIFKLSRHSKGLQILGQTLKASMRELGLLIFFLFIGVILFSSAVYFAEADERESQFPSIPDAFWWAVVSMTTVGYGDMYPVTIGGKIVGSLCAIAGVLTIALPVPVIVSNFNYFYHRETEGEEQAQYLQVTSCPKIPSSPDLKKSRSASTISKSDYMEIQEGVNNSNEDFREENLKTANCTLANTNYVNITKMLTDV
Excerpt: The turret and filter region of potassium channels have different effects on the toxin binding for different scorpion toxins. To investigate the importance of these two regions of potassium channels in interacting with BmK86-P1, another two channel chimeras (i.e., hKv1.2-M2 and hKv1.2-M3) were constructed, in which the turret or the filter region of the hKv1.2 channel was substituted by the equivalent region of the hKv1.1 channel.
(§4) All potassium channel expression vectors were given by others or constructed by ourselves. HEK293T cells were cultured in Dulbecco’s modified Eagle medium (Gibco, Pittsburgh, PA, USA) with 10% fetal bovine serum and penicillin/streptomycin (100 units/mL) in a 5% CO2 incubator at 37 °C. Potassium channel expression vectors and pEGFP-N1 were co-transfected into HEK293T cells using TurboFect in vitro Transfection Reagent (Thermo Scientific, Waltham, MA, USA) according to the manufacturer’s instructions. The potassium currents were recorded after transfection for 1 to 3 days.
as §2, with “references. The internal patch pipette solution and the bath solution were prepared as previously described.” for “references.”

hKv1.2 channel = target: T3, hKv1.2 channel (Homo sapiens, UniProt P16389); test: Whole-cell patch clamp, hKv1.2 channel overexpressed in HEK293T cells; format: cell-based; conditions: mean ± S.E., n ≥ 3, SEM
T3 construct: expressed in transfected cells; host or cells: HEK293T
T3 sequence (P16389 whole entry): as the sequence (P16389 whole entry V381Y/T383V) above, with Y381V, V383T counted along it
Description: as §1, §4
The channel currents were measured and recorded by whole-cell patch clamp technology according to previously published references. The internal patch pipette solution and the bath solution were prepared as previously described. All the test peptides were dissolved into bath solution supplemented with 0.01% BSA. An MPS-2 multichannel microperfusion system (INBIO Inc., Wuhan, China) was applied to change the external recording bath solution. The infusion time of the peptides should not exceed 20 min to maintain good cell conditions during electrophysiological recordings. The channel currents were recorded at room temperature (~25 °C) using an EPC 10 patch clamp amplifier. The results were presented as the means ± S.E., and in every sample at least three cells (n ≥ 3) were examined.
as §3

[2] = Thermal stability of secondary structure by CD spectroscopy; format: physicochemical; conditions: 0.2 mg/mL in ddH2O, 20, 35, 50, 65, 80 and 95 °C, then returned to 20 °C, average of three scans
Description: In order to characterize the thermal stability of BmK86-P1, we analyzed the secondary structure of BmK86-P1 peptide in aqueous solutions at different temperatures (20 °C, 35 °C, 50 °C, 65 °C, 80 °C and 95 °C) by CD spectroscopy.
The secondary structures of BmK86-P1 and its mutants in water were measured by circular dichroism (CD) spectroscopy as previously described using a ChirascanTM V^100 spectrometer (Applied Photophysics, Surrey, UK). All the peptides were dissolved into ddH2O at a concentration of 0.2 mg/mL. At a range of wavelengths from 180 to 260 nm, the absorption spectra of peptides were recorded at room temperature. The speed scanning was 1 nm/s with a response time of 1 s. […] (deg·cm^2·dmol^−1).

Question: With CC[C@H](C)[C@@H]1NC(=O)[C@@H]2CSSC[C@H](NC(=O)[C@H](C)N)C(=O)N[C@@H](CO)C(=O)N[C@@H](CCCCN)C(=O)N3CCC[C@H]3C(=O)N[C@H]3CSSC[C@H](NC(=O)[C@H](CCCNC(=N)N)NC(=O)CNC(=O)[C@H](CC(N)=O)NC1=O)C(=O)N[C@@H](Cc1c[nH]cn1)C(=O)N[C@H](C(=O)N[C@@H](Cc1ccc(O)cc1)C(=O)N[C@@H](Cc1ccc(O)cc1)C(=O)O)CSSC[C@H](NC(=O)[C@H](Cc1ccc(O)cc1)NC(=O)[C@H](CCCCN)NC(=O)[C@H](CCCNC(=N)N)NC3=O)C(=O)N[C@@H]([C@@H](C)CC)C(=O)N[C@@H](CC(=O)O)C(=O)N[C@@H](CCCCN)C(=O)NCC(=O)N[C@@H](C)C(=O)N[C@@H](CCCNC(=N)N)C(=O)N[C@@H](CC(N)=O)C(=O)NCC(=O)N[C@@H](CCCCN)C(=O)N2 [BmK86-P1] (H-ACSKPCRKYCIDKGARNGKCINGRCHCYY-OH; disulfide 2-20, 6-25, 10-27 (inferred); N-terminus and C-terminus assumed) as the compound, how does the “inhibition of rKv4.2 channel currents” value (rKv4.2 channel) read?
Answer: 11.0 ± 1.8%

Question: And the “inhibition of hKv1.2-M3 chimeric channel currents” value [1]?
Answer: 1.5 ± 0.6%

Question: And the “inhibition of hKv1.2 channel currents” value (hKv1.2 channel; 100 nM peptide)?
Answer: 74.1 ± 3.2%

Question: And the “inhibition of hKv1.2 channel currents” value (hKv1.2 channel; 1 μM peptide, room temperature (~25 °C))?
Answer: 88.6 ± 2.2%

Question: What about the IC50 (hKv1.2 channel; dose-response curve fitted with Hill equation, read-out: IC50, inhibition of the hKv1.2 channel) of the same compound?
Answer: 28.5 ± 6.3 nM

Question: And the “thermal stability of secondary structure” value [2]?
Answer: thermally stable

Source: article PMC8472965, “BmK86-P1, a New Degradation Peptide with Desirable Thermostability and Kv1.2 Channel-Specific Activity from Traditional Chinese Scorpion Medicinal Material” (Toxins, 2021)
